From patent US20110086891A1, “Solid Forms of 2-(2,4-Difluorophenyl)-6-(1-(2,6-Difluorophenyl)Ureido)Nicotinamide)” (Vertex Pharmaceuticals Incorporated, priority 2009, published 2011)
Converted amounts (≈) assume the structure as drawn. “Also recorded” adds a separate entry of the source. Blank lines part the entries; values can stand above or below the molecule they belong to.

Key:
Assay type in all cases: physicochemical
[1] = Stability studies at 40° C./75% RH (physical and chemical stability, XRPD)
Source text: In some embodiments, less than 25% of the solid form of Compound I decomposes, in some embodiments, less than about 20%, less than about 15%, less than about 10%, less than about 5%, less than about 3%, less than about 1%, less than about 0.5% of the form of Compound I decomposes under the conditions specified. In some embodiments, no detectable amount of the solid form of Compound I decomposes. […] In some embodiments, less than 25% of the solid form of Compound I changes into one or more different physical forms when subjected to specified conditions. In some embodiments, less than about 20%, less than about 15%, less than about 10%, less than about 5%, less than about 3%, less than about 1%, less than about 0.5% of the solid form of Compound I changes into one or more different physical forms of Compound I when subjected to specified conditions. In some embodiments, no detectable amount of the solid form of Compound I changes into one or more physically different solid forms of Compound I.

[2] = Gravimetric vapour sorption (GVS) studies
Method: All samples were run on a Hiden IGASorp moisture sorption analyzer running CFRSorp software. Sample sizes were typically 10 mg. A moisture absorption-desorption isotherm was performed as outlined below in Table X (2 scans giving 1 complete cycle). All samples were loaded/unloaded at typical room humidity and temperature (40% RH, 25° C.). All samples were analysed by XRPD post GVS analysis. The standard isotherm was performed at 25° C. at 10% RH intervals over a 0-90% RH range.

[3] = Relative stability studies: slurrying 1:1 mixtures of forms in 3:1 water:ethanol at various temperatures; conditions: slurry in 3:1 water:ethanol
Method: 1:1 mixtures of Form C and form G of Compound I were slurried in 3:1 water:ethanol at a range of temperatures to determine the relative stability at different temperatures. 5 mg of Form C was mixed with 5 mg of Form G in a glass vial. 1.0 ml of 3:1 water:ethanol was added and the resulting slurry was stirred at 5° C. for 10 days. The resulting solid was isolated by filtration and analysed by XRPD (see FIG. 17).
(§1) The above procedure was repeated at 25, 50 and 80° C.
1:1 mixtures of Form C and Form F were slurried in 3:1 water:ethanol at a range of temperatures to determine the relative stability at different temperatures. […] Ethanol was used in addition to water in order to increase the amount of Compound I in solution and so increase the rate of conversion between forms. Ethanol was chosen as no ethanol solvate of Compound I was known. 10 mg of Form C was mixed with 10 mg of Form F in a glass vial. 2.0 ml of 3:1 water:ethanol was added and the resulting slurry was stirred at 5° C. for 24 hours. Solid was isolated by filtration and analysed by XRPD.
as §1
1:1 mixtures of Form F and Form G were slurried in 3:1 water:ethanol at a range of temperatures to determine the relative stability at different temperatures. 10 mg of Form F was mixed with 10 mg of Form G in a glass vial. 2.0 ml of 3:1 water:ethanol was added and the resulting slurry was stirred at 5° C. for 24 hours. The resulting solid was isolated by filtration and analysed by XRPD. The above procedure was repeated at 25, 50 and 70° C. 70° C. was used instead of 80° C. in an attempt to reduce degradation.

[4] = Solubility analysis (in water); conditions: 25° C.
Method: This was measured by suspending enough Compound I in 0.25 mL of solvent (water) to give a maximum final concentration of ≧10 mg/ml of the parent free form of the compound. The suspension was equilibrated at 25° C. for 24 hrs followed by a pH check and filtration through a glass fibre C96 well plate. The filtrate was then diluted down by a factor of 101. Quantitation was by HPLC (Table XI) with reference to a standard, diluted and undiluted tests were injected. The solubility was calculated by integration of the peak area found at the same retention time as the peak maximum in the standard injection. If there is sufficient solid in the filter plate the XRPD is normally checked for phase changes, hydrate formation, amorphization, crystallization, etc.

[5] = Solid form conversion on heating, cooling, storage, slurrying or addition of water (XRPD, VT-XRD); conditions: for form conversion upon slurrying in a non-solvate forming solvent: slurry, MeOH and water (MeOH:H2O 1:1)
Method: Another form, Form P, was detected during the MeOH re-crystallization step used to prepare Form C from Form A. Form P is characterized below. When variable-temperature X-Ray diffraction (VT-XRD) of Form P was carried out in 5° C. increments from 25 to 50° C. and the resulting solid was cooled back to ambient conditions, it was observed that Form P transitions to Form A at approximately 40° C. and returns to Form P upon cooling back to room temperature. […] Both Form A and Form P are MeOH solvates.
1. Bruker D8 Discover with HighStar array detector with an accelerator voltage of 40 kV and current of 35 mA over a 120 second acquisition time. Each sample was prepared in a nickel sample holder and the subsequent pattern collected over two frames with a 2θ range of 4-41°. Variable temperature X-Ray diffraction (VT-XRD) was accomplished with a DHS900 Anton Paar heating stage with a TCU150 controller with a heating rate between steps of 10° C./min and an equilibration time of 5 minutes at temperature. 2. Siemens D5000 diffractometer using CuKα radiation (40 kV, 40 mA), θ-θ goniometer, automatic divergence and receiving slits, a graphite secondary monochromator and a scintillation counter. The data were collected over an angular 2 theta range of 2° to 42° in continuous scan mode using a step size of 0.02° and a step time of 1 second. Samples were run under ambient conditions and prepared as flat plate specimens using powder as received without grinding. Approximately 1-2 mg of the sample was slightly pressed on a glass slide to obtain a flat surface. Samples run under non-ambient conditions were mounted on a silicon wafer with heat conducting compounds. The sample was then heated to the appropriate temperature at ca. 20° C./min and subsequently held isothermally for ca 1 minute before data collection was initiated. 3. Bruker AXS C2 GADDS Diffractometer using CuKα radiation (40 kV, 40 mA), automated XYZ stage, laser video microscope for auto-sample positioning and a HiStar 2-dimensional area detector. X-Ray optics consists of a single Gobel multilayer mirror coupled with a pinhole collimator of 0.3 mm. Beam divergence, was approximately 4 mm. A θ-θ continuos scan mode was employed with a sample to detector distance of 20 cm which gives an effective 2θ range of 3.2-29.8°. A typical exposure time of a sample in this system would be 120 s. Samples were run under ambient conditions and prepared as flat plate specimens using powder as received without grinding. Approximately 25-50 mg of the sample was gently packed into 12 mm diameter, 0.5 mm deep cavities cut into polished, zero-background (510) silicon wafers (from The Gem Dugout). All specimens were run both stationary and rotated on their own plate during analysis. A further specimen was run using silicon powder as internal standard to correct for any peak displacement. Diffraction data were reported using Cu Kαl (l=1.5406 Å), after the Kαl component had been stripped using EVA, the powder patterns were indexed by the ITO method using WIN-INDEX and the raw lattice constants refined using WIN-METRIC. 4. Shimadzu XRD-6000 X-Ray powder diffractometer using CuKα radiation (40 kV, 40 mA) equipped with a fine-focus X-Ray tube. Divergence and Scattering slids were set at 1° and the receiving slit was set at 0.15 mm. A NaI scintillation detector detected diffracted irradiation. A θ-2θ continuous scan at 3°/min (0.4 sec/0.02° step) from 2.5° to 40° was used. A silicon standard was analyzed each day to check the instrument alignment. Each sample was prepared for analysis by pressing it onto the sample holder. 5. Inel XRG-3000 X-Ray powder diffractometer using CuKα radiation (40 kV, 30 mA). This was equipped with a curved position-sensitive detector. Data was collected in real time over a 2 θ range of 120° at a resolution of 0.03°. Samples were packed in an aluminum holder with a silicon insert and analyzed. A silicon standard was analyzed each day to check for instrument alignment. […]

[6] = Apparent solubilities of Form A at room temperature and at 60° C.; conditions: thermodynamic from solid

results of stability studies as seen by XRPD (before and after spectra) [1]: before and after spectra are similar | time remaining chemically stable ([1]; 40° C./75% RH): at least two | time remaining in substantially the same physical form ([1]; 40° C./75% RH): at least two | hygroscopicity [2]: highly hygroscopic | total water gain (in weight) at 10% RH ([2]; 10% RH): 1% | weight gain in water at 90% RH [2]: more than 8% | relative stability between forms [3]: more stable than Form F at 5 °C | solubility in water [4]: at least 0.020 mg/mL | form conversion after the addition of water ([5]; 20° C. to 50° C., 2, 5 and 24 hours after addition of water): convert into Form Q
Structure (SMILES): NC(=O)c1ccc(N(C(N)=O)c2c(F)cccc2F)nc1-c1ccc(F)cc1F [Form G, 2-(2,4-difluorophenyl)-6-(1-(2,6-difluorophenyl)ureido)nicotinamide]
form conversion on heating [5]: converted into Form F on heating above about 130 °C

form conversion upon slurrying in a non-solvate forming solvent [5]: become crystalline Form C | solubility ([6]; organic solvent or mixture, 60° C., 1-Butanol): 2900 µg/mL (≈ 7.17 mM) | solubility ([6]; organic solvent or mixture, 60° C., Butyl Acetate): 1900 µg/mL (≈ 4.7 mM) | solubility ([6]; organic solvent or mixture, room temperature, 1-Butanol): 2000 µg/mL (≈ 4.95 mM) | solubility ([6]; organic solvent or mixture, room temperature, 2-Butanone): 3400 µg/mL (≈ 8.41 mM) | solubility ([6]; organic solvent or mixture, room temperature, 2-Propanol): < 800 µg/mL | solubility ([6]; organic solvent or mixture, room temperature, 2-Propyl Acetate): 2900 µg/mL (≈ 7.17 mM) | solubility ([6]; organic solvent or mixture, room temperature, Acetone): 6400 µg/mL (≈ 15.8 mM) | solubility ([6]; organic solvent or mixture, room temperature, Acetonitrile): 3800 µg/mL (≈ 9.4 mM) | solubility ([6]; organic solvent or mixture, room temperature, Dimethylformamide): > 100000 µg/mL | solubility ([6]; organic solvent or mixture, room temperature, Ethanol): 5700 µg/mL (≈ 14.1 mM) | solubility ([6]; organic solvent or mixture, room temperature, Ethyl Acetate): 7200 µg/mL (≈ 17.8 mM) | solubility ([6]; organic solvent or mixture, room temperature, Heptane): < 900 µg/mL | solubility ([6]; organic solvent or mixture, room temperature, Methanol): 5700 µg/mL (≈ 14.1 mM) | solubility ([6]; organic solvent or mixture, room temperature, Methylene Chloride): < 800 µg/mL | solubility ([6]; organic solvent or mixture, room temperature, Tetrahydrofuran): 1500 µg/mL (≈ 3.71 mM) | solubility ([6]; room temperature, Water): < 900 µg/mL
Structure (SMILES): NC(=O)c1ccc(N(C(N)=O)c2c(F)cccc2F)nc1-c1ccc(F)cc1F [Form A, 2-(2,4-difluorophenyl)-6-(1-(2,6-difluorophenyl)ureido)nicotinamide•MeOH]
results of stability studies as seen by XRPD (before and after spectra) [1]: before and after spectra illustrate formation of Form C | form conversion upon storage ([1]; 40° C./75% RH): become Form C described herein after one to four weeks; also recorded: convert to Form C upon storage at 40° C./75% RH for one week or longer | form conversion on cooling ([5]; cooling): convert to Form P upon cooling below about 50 °C | form conversion on heating [5]: become crystalline Form C upon heating to 100 °C

time remaining chemically stable ([1]; 40° C./75% RH): at least 2 weeks | time remaining in substantially the same physical form ([1]; 40° C./75% RH): at least 2 weeks | total weight gain in water at 40% RH ([2]; 40% RH): 1% | weight gain in water at 90% RH [2]: 1.1% | solubility in water [4]: at least 0.021 mg/mL
Structure (SMILES): NC(=O)c1ccc(N(C(N)=O)c2c(F)cccc2F)nc1-c1ccc(F)cc1F [Form F, 2-(2,4-difluorophenyl)-6-(1-(2,6-difluorophenyl)ureido)nicotinamide]
fate of the form on slurrying [3]: At 5 and 25° C., Form F was observed to convert to Form G; also recorded: not recovered after slurrying at any of the four temperatures

temperature of transition of Form P to Form A ([5]; VT-XRD, 5° C. increments from 25 to 50° C.): approximately 40 °C | form conversion upon slurrying in a non-solvate forming solvent [5]: convert to Form C
Structure (SMILES): NC(=O)c1ccc(N(C(N)=O)c2c(F)cccc2F)nc1-c1ccc(F)cc1F [Form P, 2-(2,4-difluorophenyl)-6-(1-(2,6-difluorophenyl)ureido)nicotinamide•MeOH]
results of stability studies as seen by XRPD (before and after spectra) [1]: before and after spectra illustrate formation of Form C | form conversion on heating [5]: convert to Form A upon heating to 50 °C and then to Form C upon heating to 100 °C | relative stability of Form A and Form P ([5]; room temperature, VT-XRD): the more stable of the two at room temperature
